Patent US20260184691A1, “INHIBITORS AND DEGRADERS OF PIP4K PROTEIN” (Larkspur Biosciences, Inc., priority 2022, published 2026)

What follows are compounds tested against T1, endogenous PIP4K2C C-terminally tagged with HiBiT peptide in MOLT-4 cells (Homo sapiens, UniProt Q8TBX8) (assay: HiBiT PIP4K2C degradation assay in MOLT-4 cells). Settings: 24 hours, 10-point dose response, top concentration 10 micromolar, read-out: HiBIT-degradation MOLT4 PIP4k2C 24 hours DC50.
T1 construct: to C-terminally tag endogenous PIP4K2C with HiBiT peptide; host or cells: MOLT-4 (CRISPR-Cas9 knock-in clone)
T1 sequence (Q8TBX8 1-421): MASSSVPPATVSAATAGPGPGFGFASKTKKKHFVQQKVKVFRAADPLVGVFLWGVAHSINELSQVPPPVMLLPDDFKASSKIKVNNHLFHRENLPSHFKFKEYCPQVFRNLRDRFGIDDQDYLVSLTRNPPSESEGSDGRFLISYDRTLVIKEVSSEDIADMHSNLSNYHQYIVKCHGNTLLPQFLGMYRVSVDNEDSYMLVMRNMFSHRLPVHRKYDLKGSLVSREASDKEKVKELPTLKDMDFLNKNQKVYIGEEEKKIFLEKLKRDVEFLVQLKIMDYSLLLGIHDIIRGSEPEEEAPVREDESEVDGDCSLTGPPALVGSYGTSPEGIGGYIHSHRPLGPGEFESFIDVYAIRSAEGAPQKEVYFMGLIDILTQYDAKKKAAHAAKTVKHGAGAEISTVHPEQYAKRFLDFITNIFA
Format: cell-based
In short: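 Cells bearing C-terminal HiBiT knock-in were exposed to a 10-point, 3-fold dilution series (top 10 micromolar, duplicate) for 24 h at 37C, 5% CO2. Remaining tagged protein read by lytic HiBiT luminescence; DC50 from Hill-equation fit.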

Row | Compound | DC50 [nM]
1 | Cn1c(=O)n(C2CCC(=O)NC2=O)c2ccc(C3CCN(CC(=O)N4CCC5(CC4)CCN(c4cncc(Nc6ncc(Cl)c(-c7cccc(C8CC8)c7)n6)c4)C5=O)CC3)cc21 (centres unmarked) [Compound 209, 3-(5-(1-(2-(2-(5-((5-chloro-4-(3-cyclopropylphenyl)pyrimidin-2-yl)amino)pyridin-3-yl)-1-oxo-2,8-diazaspiro[4.5]decan-8-yl)-2-oxoethyl)piperidin-4-yl)-3-methyl-2-oxo-2,3-dihydro-1H-benzo[d]imidazol-1-yl)piperidine-2,6-dione] | < 500
2 | O=C1CCC(Nc2ccc(N3CCC(N4CCC5(CCN(c6cncc(Nc7ncc(Cl)c(N8CCCCC8)n7)c6)C5=O)CC4)CC3)cc2)C(=O)N1 (centres unmarked) [Compound 91, 3-((4-(4-(2-(5-((5-chloro-4-(piperidin-1-yl)pyrimidin-2-yl)amino)pyridin-3-yl)-1-oxo-2,8-diazaspiro[4.5]decan-8-yl)piperidin-1-yl)phenyl)amino)piperidine-2,6-dione] | 1000 to 5000
3 | O=C1CCC(N2C(=O)c3cccc(OCCCN4CCN(CCCCCCCC(=O)Nc5cncc(Nc6ncc(Cl)c(-c7cccc(-c8ccccc8)c7)n6)c5)CC4)c3C2=O)C(=O)N1 (centres unmarked) [Compound 67, N-(5-((4-([1,1′-biphenyl]-3-yl)-5-chloropyrimidin-2-yl)amino)pyridin-3-yl)-8-(4-(3-((2-(2,6-dioxopiperidin-3-yl)-1,3-dioxoisoindolin-4-yl)oxy)propyl)piperazin-1-yl)octanamide] | < 500

Further lines, results first:

Row | DC50 [nM] | Compound
4 | < 500 | O=C1CCC(N2Cc3cc(C4CCN(CC(=O)N5CCC(C(=O)Nc6cncc(Nc7ncc(Cl)c(-c8cccc(C9CC9)c8)n7)c6)CC5)CC4)ccc3C2=O)C(=O)N1 (centres unmarked) [Compound 203, N-(5-((5-chloro-4-(3-cyclopropylphenyl)pyrimidin-2-yl)amino)pyridin-3-yl)-1-(2-(4-(2-(2,6-dioxopiperidin-3-yl)-1-oxoisoindolin-5-yl)piperidin-1-yl)acetyl)piperidine-4-carboxamide]
5 | < 500 | O=C1CCC(Nc2ccc(N3CCC(CC(=O)N4CCC5(CC4)CCN(c4cncc(Nc6ncc(Cl)c(N7CCC[C@@H](C(F)(F)F)C7)n6)c4)C5=O)CC3)cc2)C(=O)N1 (stereo partly drawn) [Compound 177, 3-((4-(4-(2-(2-(5-((5-chloro-4-((R)-3-(trifluoromethyl)piperidin-1-yl)pyrimidin-2-yl)amino)pyridin-3-yl)-1-oxo-2,8-diazaspiro[4.5]decan-8-yl)-2-oxoethyl)piperidin-1-yl)phenyl)amino)piperidine-2,6-dione]
6 | < 500 | O=C1CCC(N2C(=O)c3cccc(OCCCCCCCC(=O)N4CCC5(CC4)CCN(c4cncc(Nc6ncc(Cl)c(-c7cccc(-c8ccccc8)c7)n6)c4)C5=O)c3C2=O)C(=O)N1 (centres unmarked) [Compound 79, 4-((8-(2-(5-((4-([1,1′-biphenyl]-3-yl)-5-chloropyrimidin-2-yl)amino)pyridin-3-yl)-1-oxo-2,8-diazaspiro[4.5]decan-8-yl)-8-oxooctyl)oxy)-2-(2,6-dioxopiperidin-3-yl)isoindoline-1,3-dione]
7 | < 500 | O=C(COc1ccc2c3c(cccc13)C(=O)N2C1CCC(=O)NC1=O)NCCCCCCCCCC(=O)Nc1cncc(Nc2ncc(Cl)c(-c3cccc(-c4ccccc4)c3)n2)c1 (centres unmarked) [Compound 167, N-(5-((4-([1,1′-biphenyl]-3-yl)-5-chloropyrimidin-2-yl)amino)pyridin-3-yl)-10-(2-((1-(2,6-dioxopiperidin-3-yl)-2-oxo-1,2-dihydrobenzo[cd]indol-6-yl)oxy)acetamido)decanamide]
8 | < 500 | O=C1CCC(Nc2ccc(C3CCN(CC(=O)N4CCC5(CC4)CCN(c4cncc(Nc6ncc(Cl)c(-c7cccc(N8CCC8)c7)n6)c4)C5=O)CC3)cc2)C(=O)N1 (centres unmarked) [Compound 188, 3-((4-(1-(2-(2-(5-((4-(3-(azetidin-1-yl)phenyl)-5-chloropyrimidin-2-yl)amino)pyridin-3-yl)-1-oxo-2,8-diazaspiro[4.5]decan-8-yl)-2-oxoethyl)piperidin-4-yl)phenyl)amino)piperidine-2,6-dione]
